Several values for one entry are separate records, joined by “and”; a condition that tells them apart may be missing. Equal entries are not always repeated. Entries after “also recorded” stand apart in the source; their conditions may differ.
Key:
Assay type in all cases: cell-based
[1] = biological target: T1, hPAR2 (Homo sapiens, UniProt P55085); experiment: Ca^2+ flux assay (FLIPR), inhibition of SLIGRL-NH2 activation in 1321N1-hPAR2 cells
T1 sequence (P55085 26-397): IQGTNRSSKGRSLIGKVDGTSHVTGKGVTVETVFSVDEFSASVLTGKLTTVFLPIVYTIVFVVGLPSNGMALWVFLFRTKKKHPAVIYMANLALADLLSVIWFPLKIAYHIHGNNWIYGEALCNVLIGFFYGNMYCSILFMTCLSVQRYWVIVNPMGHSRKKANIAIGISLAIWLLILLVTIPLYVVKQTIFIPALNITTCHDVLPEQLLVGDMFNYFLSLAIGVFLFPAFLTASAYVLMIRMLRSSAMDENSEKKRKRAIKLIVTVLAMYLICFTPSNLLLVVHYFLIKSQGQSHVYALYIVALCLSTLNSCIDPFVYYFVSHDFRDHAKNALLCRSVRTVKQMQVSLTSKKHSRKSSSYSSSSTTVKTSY
Procedure: (§1) Cells were loaded with Fluo-8 NW calcium dye (AAT Bioquest) for 30 min at 37 °C before compounds in Hank’s balanced salt solution (HBSS, ThermoFisher Scientific) with 20 mM HEPES (ThermoFisher Scientific), 0.1% bovine serum albumin (BSA, Sigma) and 0.5% DMSO were added and simultaneously evaluated for changes in intracellular [Ca^2+] using FLIPR TETRA (Molecular Devices) to detect agonism. For each concentration, the difference between the maximum peak Ca^2+ response and baseline response is reported. […] Antagonism experiments were also carried out on 1321N1-PAR2[WT], 1321N1-PAR2[F154A], and 1321N1-PAR2[G157C] as described. Experiments with trypsin in 1321N1-hPAR2 cells were performed in the presence of 1 µM Vorapaxar (Chemtronica) to remove any interference of PAR1 activity. […] Antagonism experiments for CHO-hPAR2 and HT-29 cells were performed in 96-well plates at 30,000 cells/well. Cells were loaded with Fluo-3 AM calcium dye (Sigma-Aldrich) for 60 min at 37 °C in HBSS with 1% FBS, 0.2% pluronic acid, 20 mM HEPES and 2.5 mM probenecid prior to the addition of antagonist. The antagonist was pre-incubated for 60 min at 37 °C followed by the addition of bovine trypsin (30 nM) at EC80. Intracellular [Ca^2+] flux was measured using FLIPR TETRA (Molecular Devices) and the difference between the maximum peak Ca^2+ response and baseline response is reported.
(§2) Binding data were analysed using the One site – Fit Ki model in GraphPad Prism 8 (GraphPad Software) to determine binding affinity. Pharmacology in vitro potency data was analysed with a 4-parameter logistic fit using the equation y = Bottom + (Top − Bottom)/[…] where y is the response, x is the 10-logarithm of the drug concentration, Bottom is no response and Top is full response in GraphPad Prism 8 or Genedata Screener (Genedata). pEC50 and pIC50 data are presented as mean ± standard error of the mean (s.e.m.) derived from the number of independent experiments stated. Schild slope analysis was calculated using Graphpad Prism 8 Gaddum/Schild EC50 global fitting (shared model parameters between all data sets) competitive model. […] Schild slope quantifies the shifts in agonist response in the presence of antagonist, a Schild slope of 1 indicates the antagonist is competitive and extra-sum-of-squares F-test (p < 0.05) was used to compare the calculated Schild slope against a hypothetical Schild slope of 1. […] The relative activity was calculated using (EmaxEC50’)/(Emax’EC50) with the Hill slope help constant at 1. EC50’ and Emax’ denote the EC50 and Emax in the absence of allosteric modulator, while EC50 and Emax denote those measured in the presence of allosteric modulator. When the Hill slope = 1, the relative activity plot approaches an asymptote corresponding to the estimate of the γ value.

[2] = biological target: T1, hPAR2; experiment: Ca^2+ flux assay, agonist mode, 1321N1-hPAR2 cells; set-up: Ca^2+ mobilisation tested as agonist, Fig 1c source data / Ca2+ response (Fig 2c), individual replicate values: unit not given here; details: for Ca^2+ mobilisation tested as agonist, Fig 1c source data: log[compound], individual data points; for Ca2+ response (Fig 2c), individual replicate values: hPAR2
Procedure: as §1, §2

[3] = biological target: T1, hPAR2; experiment: pERK1/2 HTRF assay, inhibition of SLIGRL-NH2 in U2OS-hPAR2 cells
Procedure: Phosphorylation of ERK1/2 was measured in U2OS-hPAR2 cells using Phospho-ERK1/2 (Thr202/Tyr204) assay kit (64ERKPEH Cisbio) and the 2 plate manufacturer’s protocol with the following modifications. Cells were seeded in McCoy’s 5A media containing 10% FBS at 15,000 cells per well in 384-well plates and incubated overnight at 37 °C, 5% CO2. Antagonist compounds (30 µM–1 nM) were incubated with the cells for 30 min prior to the addition of agonist SLIGRL-NH2 (10 µM) at EC80 and further incubation for 5 min at 37 °C. The supernatant was removed from the wells and lysis buffer was added to the cells and incubated with shaking at room temperature for 30 min. The cell lysate was transferred into a small-volume 384-well plate containing detection antibodies and incubated for 4 h at room temperature in the dark. Plates were read for HTRF signal on PHERAstar (BMG LabTech). In addition, phosphorylation of ERK1/2 was measured in CHO-hPAR2 using AlphaLISA SureFire Ultra pERK1/2 (Thr202/Tyr204) (Perkin Elmer). Cells were seeded at a density of 2000 cells per well in a 384-well proxiplate and incubated overnight. […] After incubation, cell lysis buffer was added with shaking for 30 min. Antibodies and beads were added and incubated for 4 h at room temperature. AlphaLISA signal was measured using a PHERAstar (BMG LabTech).
as §2

[4] = biological target: T1, hPAR2; experiment: IP1 HTRF assay, inhibition of SLIGRL-NH2 in 1321N1-hPAR2 cells
Procedure: Inhibition of PAR2-induced inositol-1-phosphate (IP1) production was measured in 1321N1-hPAR2 cells using IP-One Gq HTRF assay kit (Cisbio). […] Next, EC80 of SLIGRL-NH2 (70 µM) supplemented with 50 mM LiCl was added and incubated for 60 min at 37 °C. Detection of IP1 production was performed according to the manufacturer’s protocol and HTRF was measured using PHERAstar (BMG LabTech). Data were normalised to [IP1] using a standard curve.
as §2

[5] = biological target: T1, hPAR2; experiment: Ca^2+ flux assay, inhibition of trypsin activation in 1321N1-hPAR2 cells (with 1 µM Vorapaxar); details: for shape of inhibition of trypsin-induced Ca^2+ mobilisation: 1321N1-hPAR2 cells, 1 µM Vorapaxar

CCCc1cc(F)ccc1C(O)c1ncc[nH]1 (stereo not shown) [AZ8838]
IC50 [1]: 2 µM
remaining activity at 1.318 µM ([1]; read-out: SLIGRL-NH2 Ca^2+ mobilisation, antagonist response, Fig 1c source data, log[compound], M -5.88008, individual data points): 77.3%
remaining activity at 0.4168 µM ([1]; read-out: SLIGRL-NH2 Ca^2+ mobilisation, antagonist response, Fig 1c source data, log[compound], M -6.38007, individual data points): 83%
remaining activity at 0.1318 µM ([1]; read-out: SLIGRL-NH2 Ca^2+ mobilisation, antagonist response, Fig 1c source data, log[compound], M -6.88008, individual data points): 101%
remaining activity at 0.04169 µM ([1]; read-out: SLIGRL-NH2 Ca^2+ mobilisation, antagonist response, Fig 1c source data, log[compound], M -7.37997, individual data points): 90.3%
remaining activity at 0.01318 µM ([1]; read-out: SLIGRL-NH2 Ca^2+ mobilisation, antagonist response, Fig 1c source data, log[compound], M -7.88008, individual data points): 91.2%
remaining activity at 0.00417 µM ([1]; read-out: SLIGRL-NH2 Ca^2+ mobilisation, antagonist response, Fig 1c source data, log[compound], M -8.37986, individual data points): 97.2%
remaining activity at 0.001319 µM ([1]; read-out: SLIGRL-NH2 Ca^2+ mobilisation, antagonist response, Fig 1c source data, log[compound], M -8.87976, individual data points): 102%
Ca^2+ mobilisation tested as agonist, Fig 1c source data ([2]; M -4.38018): 2.862 and -0.09582 and -3.103 and -1.512 and -1.8855
Ca^2+ mobilisation tested as agonist, Fig 1c source data ([2]; M -4.88008): -0.3654 and 0.4152 and -1.57 and -6.425 and -2.983
Ca^2+ mobilisation tested as agonist, Fig 1c source data ([2]; M -5.38018): 1.583 and 0.2874 and -4.491 and -0.4535 and -1.063
Ca^2+ mobilisation tested as agonist, Fig 1c source data ([2]; M -5.88008): 3.532 and 5.014 and 4.491 and 1.663 and -0.1714
Ca^2+ mobilisation tested as agonist, Fig 1c source data ([2]; M -6.38007): 1.035 and 1.437 and 3.98 and 0.4535 and 1.817
Ca^2+ mobilisation tested as agonist, Fig 1c source data ([2]; M -6.88008): 1.705 and 1.246 and -5.002 and 2.343 and 3.3939
Ca^2+ mobilisation tested as agonist, Fig 1c source data ([2]; M -7.37997): 2.862 and -1.309 and -0.8397 and 2.948 and 1.406
Ca^2+ mobilisation tested as agonist, Fig 1c source data ([2]; M -7.88008): 2.375 and -2.268 and 1.1318 and 4.308 and 1.268
Ca^2+ mobilisation tested as agonist, Fig 1c source data ([2]; M -8.37986): -1.218 and 0.543 and 2.665 and 1.436 and 3.188
Ca^2+ mobilisation tested as agonist, Fig 1c source data ([2]; M -8.87976): 4.6285 and 0.6707 and 4.491 and -8.012 and -2.845
agonist activity (tested as agonists) ([2]; Ca^2+ assay and other signalling assays): no effect; also recorded: no agonist activity
IC50 [3]: 2 µM
remaining activity at 3.33 µM ([3]; read-out: SLIGRL-NH2 phosphorylation of ERK1/2, antagonist response, Fig 1e source data, log[compound], M -5.47756, individual data points): 40.4%
IC50 [4]: 1.45 µM
remaining activity at 3.163 µM ([4]; read-out: SLIGRL-NH2 IP1 formation, antagonist response, Fig 1d source data, log[compound], M -5.4999, individual data points): 40.7%
remaining activity at 1 µM ([4]; read-out: SLIGRL-NH2 IP1 formation, antagonist response, Fig 1d source data, log[compound], M -6, individual data points): 54.4%
remaining activity at 0.3164 µM ([4]; read-out: SLIGRL-NH2 IP1 formation, antagonist response, Fig 1d source data, log[compound], M -6.49976, individual data points): 79.9%
remaining activity at 0.03164 µM ([4]; read-out: SLIGRL-NH2 IP1 formation, antagonist response, Fig 1d source data, log[compound], M -7.49976, individual data points): 108%
IC50 [5]: 3.98 µM
shape of inhibition of trypsin-induced Ca^2+ mobilisation [5]: sigmoidal and monophasic
remaining activity at 1.318 µM ([5]; read-out: trypsin Ca^2+ mobilisation, antagonist response, Fig 1g source data, log[compound], M -5.88008, individual data points): 86.9%
remaining activity at 0.1318 µM ([5]; read-out: trypsin Ca^2+ mobilisation, antagonist response, Fig 1g source data, log[compound], M -6.88008, individual data points): 93.7%
remaining activity at 0.04169 µM ([5]; read-out: trypsin Ca^2+ mobilisation, antagonist response, Fig 1g source data, log[compound], M -7.37997, individual data points): 93.1%
remaining activity at 0.01318 µM ([5]; read-out: trypsin Ca^2+ mobilisation, antagonist response, Fig 1g source data, log[compound], M -7.88008, individual data points): 97.5%

C[C@@H](C1CCCCC1)n1c(-c2cc3c(cc2Br)OCO3)nc2cc(C(=O)Nc3ccncc3)ccc21 [AZ2623]
IC50 ([1]; SLIGRL-NH2, 1321N1-hPAR2 cells, mean ± s.e.m., read-out: Ca^2+ flux (hPAR2) pIC50 (converted)): 0.00501 µM
IC50 ([3]; SLIGRL-NH2, U2OS-hPAR2, mean ± s.e.m., read-out: pERK1/2 (hPAR2) pIC50 (converted)): 0.794 µM
IC50 ([4]; SLIGRL-NH2, 1321N1-hPAR2 cells, mean ± s.e.m., read-out: IP1 (hPAR2) pIC50 (converted)): 0.0813 µM
shape of inhibition of trypsin-induced Ca^2+ mobilisation [5]: biphasic inhibition curves

CNC(=O)[C@H]1CC[C@@H](NC(=O)[C@H](CC2CCCCC2)NC(=O)c2cn(Cc3ccccc3)nn2)c2ccccc21 [AZ2429]
higher potency than SLIGKV-NH2, Ca^2+ signalling ([2]; 1321N1-hPAR2): 7 fold
lower potency than GB110, Ca^2+ signalling ([2]; 1321N1-hPAR2): 6 fold
EC50 ([2]; 1321N1-hPAR2 cells, mean ± s.e.m., read-out: Ca^2+ flux pEC50 (converted)): 0.166 µM
Ca2+ response (Fig 2c), individual replicate values ([2]; [compound],M -4.30103): 115.742 and 78.7868 and 73.0001 and 99.0117
Ca2+ response (Fig 2c), individual replicate values ([2]; [compound],M -4.77815): 114.252 and 90.1883 and 78.2712 and 103.481
Ca2+ response (Fig 2c), individual replicate values ([2]; [compound],M -5.25527): 97.9804 and 100.329 and 107.319 and 71.9688
Ca2+ response (Fig 2c), individual replicate values ([2]; [compound],M -5.73239): 87.2091 and 90.6467 and 67.5571 and 89.0425
Ca2+ response (Fig 2c), individual replicate values ([2]; [compound],M -6.20952): 54.0357 and 69.6197 and 81.4796 and 66.5831
Ca2+ response (Fig 2c), individual replicate values ([2]; [compound],M -6.68664): 45.3269 and 46.8166 and 52.6033 and 41.6601
Ca2+ response (Fig 2c), individual replicate values ([2]; [compound],M -7.16376): 19.1435 and 34.6702 and 20.5758 and 32.3784
Ca2+ response (Fig 2c), individual replicate values ([2]; [compound],M -7.64088): 5.851 and 8.888 and 9.461 and 7.513
Ca2+ response (Fig 2c), individual replicate values ([2]; [compound],M -8.118): -2.628 and 1.21 and 2.414 and 2.5854
Ca2+ response (Fig 2c), individual replicate values ([2]; [compound],M -8.59512): -2.8 and -3.316 and -1.4252 and -1.712
